Tests used:
OGG1 = OGG1 (Homo sapiens (Human), UniProt O15527); test: In vitro OGG1 activity assay; type: biochemical; settings: 800 pM OGG1 enzyme, 2 nM human APEX1, 10 nM 8-oxoA:C substrate
Procedure, shortened: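 Read-out is fluorescein fluorescence, with compounds in DMSO added first, then enzyme and substrate. OGG1 excises its substrate base from a quenched fluorophore-labelled duplex, and surplus APEX1 cuts the resulting apurinic site. The duplex then melts and fluorescence rises in proportion to glycosylase activity.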

MLE12 cells = test: Cell viability assay in MLE12 cells (resazurin); type: cell-based, mouse; settings: Mus musculus, MLE12, 24 h, TNF-α 20 ng/ml, resazurin added after 24 hours culture
Procedure, shortened: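 MLE12 cells (7500 cells/well) were seeded onto 11-point duplicate compound dose-responses, with TNF-α (final 20 ng/ml) added after 1 hour at 37° C. After 24 hours, resazurin was added for 6 hours and resorufin fluorescence read (ex544 nm/em595 nm). EC50 values were calculated by curve fitting.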

CCL2 = test: Mouse CCL2 assay in MLE12 cells; type: cell-based; settings: Mus musculus, MLE12, 30 h, MLE12 cells; TNF-α 20 ng/ml; supernatant after 30 hours; HTRF; read-out: CCL2 (EC50)
Procedure, shortened: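 CCL2 in supernatants was quantified by two-antibody HTRF FRET, read at 620 and 665 nm after overnight RT incubation, with IC50 derived from delta ratios. Cells were SV40-transformed mouse MLE12, treated with duplicate 6-point compound series for 1 h before 30 h TNF-α (20 ng/ml final) stimulation.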

OGG1, sequence (O15527 whole entry): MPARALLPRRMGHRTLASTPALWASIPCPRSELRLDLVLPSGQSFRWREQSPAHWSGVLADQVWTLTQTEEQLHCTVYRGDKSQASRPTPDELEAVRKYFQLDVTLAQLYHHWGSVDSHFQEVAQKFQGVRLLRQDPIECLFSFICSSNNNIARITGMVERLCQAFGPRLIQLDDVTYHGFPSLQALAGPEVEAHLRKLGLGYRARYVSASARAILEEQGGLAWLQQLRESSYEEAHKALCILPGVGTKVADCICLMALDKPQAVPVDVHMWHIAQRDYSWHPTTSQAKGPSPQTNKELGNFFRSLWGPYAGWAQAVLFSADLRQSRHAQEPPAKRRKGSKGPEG

SMILES	IC50 (OGG1) [µM]	IC50 (MLE12 cells) [µM]	EC50 (CCL2) [µM]
COc1cc(NC(=O)[C@H]2CC[C@@H](n3c(=O)[nH]c4c(N5CCCC5)cccc43)CC2)ccc1C [Example 310, Cis-N-(3-methoxy-4-methylphenyl)-4-[2-oxo-4-(pyrrolidin-1-yl)-2,3-dihydro-1H-1,3-benzodiazol-1-yl]cyclohexane-1-carboxamide]	0.0516	6.13	13.6
COc1cc(NC(=O)[C@H]2CC[C@@H](n3c(=O)[nH]c4c(C5=CCNCC5)cccc43)CC2)ccc1C [Example 311, Cis-N-(3-methoxy-4-methylphenyl)-4-[2-oxo-4-(1,2,3,6-tetrahydropyridin-4-yl)-2,3-dihydro-1H-1,3-benzodiazol-1-yl]cyclohexane-1-carboxamide]	0.00449	13.8	14.5
COc1cc(NC(=O)[C@H]2CC[C@@H](n3c(=O)[nH]c4c(C5=CCN(C)CC5)cccc43)CC2)ccc1C [Example 312, Cis-N-(3-methoxy-4-methylphenyl)-4-[4-(1-methyl-1,2,3,6-tetrahydropyridin-4-yl)-2-oxo-2,3-dihydro-1H-1,3-benzodiazol-1-yl]cyclohexane-1-carboxamide]	0.00294	11	28.5
COc1cc(NC(=O)[C@H]2CC[C@@H](n3c(=O)[nH]c4c(N5CCC(NC(C)=O)C5)cccc43)CC2)ccc1C (stereo partly drawn) [Example 313, Cis-4-[4-(3-acetamidopyrrolidin-1-yl)-2-oxo-2,3-dihydro-1H-1,3-benzodiazol-1-yl]-N-(3-methoxy-4-methylphenyl)cyclohexane-1-carboxamide]	0.0213	19.5	35.1
